The record followed here is patent publication US20220289724A1, “KIF18A INHIBITORS” (AMGEN INC., priority 2019, published 2022).

The target in the test is T1, Recombinant human KIF18A (1-467 His-tagged) protein (Homo sapiens, UniProt Q8NI77).
T1 construct: Recombinant human KIF18A (1-467 His-tagged) protein; His; made in house
T1 sequence (Q8NI77 1-467): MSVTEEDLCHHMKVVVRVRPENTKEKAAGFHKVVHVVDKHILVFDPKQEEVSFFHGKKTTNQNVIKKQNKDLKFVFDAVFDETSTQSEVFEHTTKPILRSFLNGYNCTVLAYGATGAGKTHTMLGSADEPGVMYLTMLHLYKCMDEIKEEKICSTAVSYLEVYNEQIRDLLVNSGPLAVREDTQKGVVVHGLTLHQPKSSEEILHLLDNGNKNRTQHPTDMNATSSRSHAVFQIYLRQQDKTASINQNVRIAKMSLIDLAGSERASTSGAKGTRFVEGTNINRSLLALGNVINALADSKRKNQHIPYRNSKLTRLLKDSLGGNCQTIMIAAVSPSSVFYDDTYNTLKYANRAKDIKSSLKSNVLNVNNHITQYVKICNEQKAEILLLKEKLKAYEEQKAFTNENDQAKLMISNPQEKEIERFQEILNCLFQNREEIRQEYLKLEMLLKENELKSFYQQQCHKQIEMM
T1 sequence (P02550 whole entry partner): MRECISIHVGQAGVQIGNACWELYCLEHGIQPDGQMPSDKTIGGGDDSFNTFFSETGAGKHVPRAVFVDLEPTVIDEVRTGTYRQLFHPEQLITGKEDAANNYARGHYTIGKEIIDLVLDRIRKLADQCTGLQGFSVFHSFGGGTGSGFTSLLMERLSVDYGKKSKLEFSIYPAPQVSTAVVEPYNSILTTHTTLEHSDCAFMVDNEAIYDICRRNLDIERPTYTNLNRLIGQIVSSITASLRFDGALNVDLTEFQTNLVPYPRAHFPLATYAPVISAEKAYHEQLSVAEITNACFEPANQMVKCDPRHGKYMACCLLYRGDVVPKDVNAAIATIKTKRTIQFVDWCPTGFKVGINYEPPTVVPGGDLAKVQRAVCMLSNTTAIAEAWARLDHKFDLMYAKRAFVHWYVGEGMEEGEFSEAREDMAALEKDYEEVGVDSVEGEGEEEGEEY
T1 sequence (P02554 whole entry partner): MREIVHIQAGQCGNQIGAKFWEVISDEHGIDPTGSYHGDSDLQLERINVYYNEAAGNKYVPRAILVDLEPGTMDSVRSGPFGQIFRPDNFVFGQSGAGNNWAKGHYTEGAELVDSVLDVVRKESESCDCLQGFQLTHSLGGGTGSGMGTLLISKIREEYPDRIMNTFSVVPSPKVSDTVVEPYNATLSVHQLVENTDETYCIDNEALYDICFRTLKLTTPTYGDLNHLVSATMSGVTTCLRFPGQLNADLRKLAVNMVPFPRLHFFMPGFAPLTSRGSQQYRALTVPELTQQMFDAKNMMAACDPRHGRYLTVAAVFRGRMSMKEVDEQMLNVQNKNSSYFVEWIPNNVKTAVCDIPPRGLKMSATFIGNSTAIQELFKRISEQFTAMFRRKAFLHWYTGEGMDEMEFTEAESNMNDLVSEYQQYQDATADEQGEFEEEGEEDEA
Briefly: KIF18A Enzyme Assay: microtubule-stimulated ATPase activity assay (ADP-Glo). The settings on record: KIF18A protein 30 nM, 30 μg/mL pig microtubules, ATP at Km 75 μM, ADP-Glo luminescence, RT. It counts as biochemical. From the text:
KIF18A Enzyme Assay: Microtubule-stimulated ATPase activity assay is used to measure KIF18A enzyme activity after treatment with compound. Compounds were 2-fold serially diluted in DMSO (Sigma Inc) over 22-point concentration range. Recombinant human KIF18A (1-467 His-tagged) protein was expressed using a baculovirus system and purified by affinity chromatography by Amgen Inc. Concentrations of KIF18A protein, microtubules (MT), and ATP in the reaction were optimized for standardized homogenous enzyme assay using ADP-Glorm Kinase/ATPase Assay Kit (Promega Inc). The assay measures ADP formed from the ATPase reaction. […] Concentration-response curve-fitting and IC50 determination was performed using Genedata Screener Software (Standard 15.0.1, Genedata Inc) with a four-parameter logistic regression fit model.
Table A provides data for compounds exemplified in the present application and priority document thereof, as representative compounds of the present invention, as follows: chemical name (as named by either ACD software or ChemDraw (Professional 15.0)) and biological data (IC50 in μM). Ex. […] refers to Example No.
A word on the IC50: it is the concentration that gives 50% inhibition. As for `CCS(=O)(=O)Nc1ccc(C(=O)Nc2cccc(S(=O)(=O)NC(C)(C)C)c2)c(N2CCC3(CC2)CC3)c1` [Example 102-2, N-(3-(N-(tert-butyl)sulfamoyl)phenyl)-4-(ethylsulfonamido)-2-(6-azaspiro[2.5]octan-6-yl)benzamide], the half-maximal inhibitory concentration (IC50) was determined as 34 nM.
As to `CC(C)(C)NS(=O)(=O)c1cccc(NC(=O)c2ccc(NCCO)cc2N2CCC3(CC2)CC3)c1` [Example 110-1, N-(3-(N-(tert-butyl)sulfamoyl)phenyl)-4-((2-hydroxyethyl)amino)-2-(6-azaspiro[2.5]octan-6-yl)benzamide], the half-maximal inhibitory concentration (IC50) turned out to be 134 nM.
As for `CC(C)(C)NS(=O)(=O)c1cccc(NC(=O)c2ccc(S(=O)(=O)NC3CC3)cc2N2CCC3(CC2)CC3)c1` [Example 107-6, N-(3-(N-(tert-butyl)sulfamoyl)phenyl)-4-(N-cyclopropylsulfamoyl)-2-(6-azaspiro[2.5]octan-6-yl)benzamide], the half-inhibitory concentration (IC50) is 36 nM.
`Cc1cc(NC(=O)c2ccc(NS(=O)(=O)CCO)cc2N2CCC3(CC2)CC3)cc(N2CCC(F)(F)CC2)c1` [Example 104, N-(3-(4,4-difluoropiperidin-1-yl)-5-methylphenyl)-4-((2-hydroxyethyl)sulfonamido)-2-(6-azaspiro[2.5]octan-6-yl)benzamide]: the half-inhibitory concentration (IC50) is 34 nM.
